Assay results taken from publication PMC10892041, “Vanadium Complexes with Thioanilide Derivatives of Amino Acids: Inhibition of Human Phosphatases and Specificity in Various Cell Models of Metabolic Disturbances” (Pharmaceuticals, 2024).
Like-named read-outs stand apart in the source and are kept apart here.

Legend:
PP2A = PP2A (Homo sapiens, UniProt P67775); experiment: Inhibition of human recombinant non-tyrosine phosphatase PP2A (DiFMUP); assay type: biochemical
Description: (§1) For the inhibition assay of non-tyrosine phosphatases, human recombinant proteins were used (Sigma-Aldrich). The reactions were performed in black opaque 384-well microplates (PerkinElmer). To the solution of the tested complexes, an equal volume of a test solution of phosphatase was added. CDC25A were diluted in reaction buffer to the final concentration of 400 ng/mL as for tyrosine phosphatases (described in the section above), and PPA2 (final 0.5 U/mL) was diluted in 50 mM Tris-HCl, 0.05% Tween-20, and 125 µg/mL protease-free bovine serum albumin (pH 7.0). These solutions were dispensed using an automated injector. After 10 min, a solution of phosphate 6,8-difluoro-4-methyl (DiFMUP; Thermo Fisher Scientific) was added for the PPA2 sample until the final concentration 0.1 mM. For CDC25A samples, 3-O-methylfluorescein phosphate for the final concentration of 0.2 mM was added. Samples were incubated for 180 min at 23 °C, and then the measurements of fluorescence intensity (excitation 355 and emission 560 nm) were performed on a multifunctional plate reader POLARstar Omega (BMG Labtech). Assays were performed in triplicate. The results were expressed as percent of inhibition of untreated control (enzyme with vehicle solvent only).

SHP1 = biological target: T1, SHP1 (Homo sapiens, UniProt P29350); experiment: Inhibition of human recombinant tyrosine phosphatase SHP1 (DiFMUP fluorescence); assay type: biochemical; details: for Inhibition of SHP1, percentage of inhibition of the control: 1 µM, control solvent only, SD did not exceed 6%
T1 construct: purchased Sigma-Aldrich
T1 sequence (P29350 whole entry): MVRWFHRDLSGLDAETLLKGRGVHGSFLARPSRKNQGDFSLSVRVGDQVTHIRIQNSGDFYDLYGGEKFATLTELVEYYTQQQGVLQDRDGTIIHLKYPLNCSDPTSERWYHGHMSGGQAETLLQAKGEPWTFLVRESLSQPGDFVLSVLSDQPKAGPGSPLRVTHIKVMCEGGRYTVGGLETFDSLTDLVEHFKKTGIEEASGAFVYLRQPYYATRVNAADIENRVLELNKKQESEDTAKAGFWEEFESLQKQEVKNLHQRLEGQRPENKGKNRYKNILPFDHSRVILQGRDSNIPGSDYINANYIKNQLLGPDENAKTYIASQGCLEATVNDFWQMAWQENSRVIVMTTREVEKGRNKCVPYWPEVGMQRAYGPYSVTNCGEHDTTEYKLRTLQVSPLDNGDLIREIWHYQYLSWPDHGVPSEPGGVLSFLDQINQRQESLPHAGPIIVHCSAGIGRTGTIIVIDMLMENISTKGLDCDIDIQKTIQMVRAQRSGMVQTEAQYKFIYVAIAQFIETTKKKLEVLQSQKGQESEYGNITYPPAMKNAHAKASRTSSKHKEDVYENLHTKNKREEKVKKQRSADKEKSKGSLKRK
Description: (§2) To determine the ability of the tested compounds for inhibition tyrosine phosphatases, human recombinant proteins were used (Sigma-Aldrich). The reactions were performed in black opaque 384-well microplates (PerkinElmer, Waltham, MA, USA). An equal volume of phosphatase solution in a reaction buffer (25 mM of 3-(N-morpholino)propanesulfonic acid (MOPS), 50 mM NaCl, 1 mM dithiothreitol (DTT), and 0.05% Tween-20 (pH 7.0)) was added to the solution of the tested compound on microplate. These solutions were dispensed using an automated injector. The following final concentrations of the tested phosphatases were used: PTP1B 50 ng/mL, SHP1 400 ng/mL, SHP2 50 ng/mL, LAR 5 ng/mL, and PTPRA 100 ng/mL. After 10 min, a solution of phosphate 6,8-difluoro-4-methyl (DiFMUP; Thermo Fisher Scientific) was added until its final concentration was 0.1 mM. Samples were incubated for 20 miN at 23 °C, and then the measurements of fluorescence intensity (excitation 355 and emission […]) were performed on a multifunctional plate reader POLARstar Omega (BMG Labtech, Ortenberg, Germany). Assays were performed in triplicate. For the screening assays, the final concentration of the tested compounds was 1 µM. The results were expressed as percent inhibition of untreated control (enzyme with vehicle only) for the screening tests. […] IC50 were calculated using GraphPad Prism version 6.0 software (GraphPad Software, Boston, MA, USA).

LAR = biological target: T2, LAR (Homo sapiens, UniProt P10586); experiment: Inhibition of human recombinant tyrosine phosphatase LAR (DiFMUP fluorescence); assay type: biochemical; details: for Inhibition of LAR, percentage of inhibition of the control: 1 µM, control solvent only, SD did not exceed 6%
T2 sequence (P10586 1352-1607 limits assumed): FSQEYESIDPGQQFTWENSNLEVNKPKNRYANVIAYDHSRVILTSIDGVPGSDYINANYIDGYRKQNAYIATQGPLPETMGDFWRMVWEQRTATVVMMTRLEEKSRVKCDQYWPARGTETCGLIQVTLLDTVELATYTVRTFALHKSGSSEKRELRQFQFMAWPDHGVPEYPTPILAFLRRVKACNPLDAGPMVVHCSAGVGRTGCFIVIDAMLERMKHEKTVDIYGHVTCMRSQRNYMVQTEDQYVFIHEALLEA
Description: as §2

CDC25A = biological target: T3, CDC25A (Homo sapiens, UniProt P30304); experiment: Inhibition of human recombinant non-tyrosine phosphatase CDC25A (3-O-methylfluorescein phosphate); assay type: biochemical
T3 construct: purchased Sigma-Aldrich
T3 sequence (P30304 1-524): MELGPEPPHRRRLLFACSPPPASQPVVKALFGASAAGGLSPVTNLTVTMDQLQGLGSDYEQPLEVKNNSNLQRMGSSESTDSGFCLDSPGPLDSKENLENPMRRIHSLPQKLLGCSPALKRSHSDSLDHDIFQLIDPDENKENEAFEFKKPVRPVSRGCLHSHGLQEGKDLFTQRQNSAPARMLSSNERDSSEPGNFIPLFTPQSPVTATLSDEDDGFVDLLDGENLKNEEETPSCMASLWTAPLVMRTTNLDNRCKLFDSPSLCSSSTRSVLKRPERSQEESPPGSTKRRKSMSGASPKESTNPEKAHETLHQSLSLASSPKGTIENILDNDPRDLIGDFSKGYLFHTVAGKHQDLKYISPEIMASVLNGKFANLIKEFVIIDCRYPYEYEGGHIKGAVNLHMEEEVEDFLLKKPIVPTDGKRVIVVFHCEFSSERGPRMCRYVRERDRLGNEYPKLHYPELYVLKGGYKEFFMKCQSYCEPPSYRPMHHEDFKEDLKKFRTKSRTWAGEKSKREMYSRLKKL
Description: as §1

PTP1B = biological target: T4, PTP1B (Homo sapiens, UniProt P18031); experiment: Inhibition of human recombinant tyrosine phosphatase PTP1B (DiFMUP fluorescence); assay type: biochemical; details: for Inhibition of PTP1B, percentage of inhibition of the control: 1 µM, control solvent only, SD did not exceed 6%
T4 construct: purchased Sigma-Aldrich
T4 sequence (P18031 1-435): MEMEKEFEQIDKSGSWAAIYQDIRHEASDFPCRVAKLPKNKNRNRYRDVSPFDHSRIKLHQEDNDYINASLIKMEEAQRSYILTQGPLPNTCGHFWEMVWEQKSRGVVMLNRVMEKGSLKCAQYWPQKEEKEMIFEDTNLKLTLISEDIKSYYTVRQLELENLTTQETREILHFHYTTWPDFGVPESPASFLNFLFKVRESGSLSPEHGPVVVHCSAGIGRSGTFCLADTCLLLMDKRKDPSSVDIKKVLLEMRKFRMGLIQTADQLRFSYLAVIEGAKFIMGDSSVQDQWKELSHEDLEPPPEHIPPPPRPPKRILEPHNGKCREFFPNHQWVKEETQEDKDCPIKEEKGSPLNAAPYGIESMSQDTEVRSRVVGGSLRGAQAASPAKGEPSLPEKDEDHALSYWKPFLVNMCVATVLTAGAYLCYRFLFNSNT
Description: as §2

myocytes C2C12 [1] = experiment: Viability of myocytes C2C12 after 24 h incubation (resazurin-based reagent); details: 50 µM
Description: Simultaneously with glucose consumption tests, the viability of myocytes C2C12 was examined due to their prolonged 24 h incubation with vanadium complexes.
Prolonged incubation of the cells with vanadium complexes, as was the case during the study of the effect on glucose consumption, more closely corresponds to the actual conditions of clinical use, also allowing for the identification of possible cytotoxic effects. […] A Resazurin-based reagent is reduced proportionally to the metabolic activity of cells as a result of the transference of electrons from NADPH+H^+, the amount of which strictly depends on glucose metabolism.

SHP2 = biological target: T5, SHP2 (Homo sapiens, UniProt Q06124); experiment: Inhibition of human recombinant tyrosine phosphatase SHP2 (DiFMUP fluorescence); assay type: biochemical; details: for Inhibition of SHP2, percentage of inhibition of the control: 1 µM, control solvent only, SD did not exceed 6%
T5 construct: purchased Sigma-Aldrich
T5 sequence (Q06124 1-593): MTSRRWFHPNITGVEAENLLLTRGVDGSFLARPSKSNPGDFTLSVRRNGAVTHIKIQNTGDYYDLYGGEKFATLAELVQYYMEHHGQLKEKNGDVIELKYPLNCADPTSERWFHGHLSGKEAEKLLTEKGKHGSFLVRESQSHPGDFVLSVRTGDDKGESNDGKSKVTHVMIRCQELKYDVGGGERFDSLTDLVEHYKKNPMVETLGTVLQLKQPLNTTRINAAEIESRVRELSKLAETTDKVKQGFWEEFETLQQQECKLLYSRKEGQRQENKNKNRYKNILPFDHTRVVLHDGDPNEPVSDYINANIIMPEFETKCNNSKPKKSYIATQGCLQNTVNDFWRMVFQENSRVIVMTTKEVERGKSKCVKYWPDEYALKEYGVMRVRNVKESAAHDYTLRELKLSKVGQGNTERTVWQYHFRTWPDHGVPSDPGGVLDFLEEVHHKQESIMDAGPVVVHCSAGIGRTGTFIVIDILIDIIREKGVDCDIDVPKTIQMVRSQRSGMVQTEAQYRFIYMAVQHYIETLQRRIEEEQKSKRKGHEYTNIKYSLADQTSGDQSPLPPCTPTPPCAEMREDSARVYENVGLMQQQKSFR
Description: as §2

adipocytes 3T3-L1 = experiment: Scintillation proximity assay, transport of [14C]-deoxy-D-glucose into adipocytes 3T3-L1; assay type: cell-based, mouse; details: 50 µM
Description: Adipocytes 3T3-L1 cell line (ATCC CRL-11605) derived from fibroblasts from mouse embryo tissue were cultured according to standard protocol in DMEM medium supplemented with 10% bovine calf serum, 100 IU/mL penicillin, and […] streptomycin at 37 °C in 5% CO2. Cells were seeded in 96-well poly-D-lysine-coated plates and cultured to reach confluency.
(§3) Scintillation proximity assay (SPA) is a method to measure the real-time accumulation of radiolabeled substrates by adherent cells with no filtration needed. Radioactivity concentrated closer to the scintillator embedded in the plastic bottom of each well provides a stronger signal than the radiolabeled substrate in the culture medium. Uptake of radiolabeled 2-deoxy-D-[U-14C]-glucose was conducted based on previous descriptions.
Adipocytes were washed and the medium was changed to the basal medium. After 24 h incubation, the tested complexes were added. After 2 h incubation at 37 °C in 5% CO2, the medium was changed to DMEM medium without glucose, with 0.1% BSA free from fatty acid, […] L-glutamine, and […] pyruvate. The tested complexes were added again, and further incubation for 4 h was conducted.
(§4) For cells proceeded as above, 2-deoxy-D-[U-14C]-glucose (250–350 mCi/mmol, NEC720A, PerkinElmer) solution in KRB with a total activity of 0.03 mCi was added to each well. […] Non-specific radioactivity was subtracted from each result (cpm). Two independent experiments with triplicates were conducted.

myocytes C2C12 [2] = experiment: Scintillation proximity assay, transport of [14C]-deoxy-D-glucose into myocytes C2C12; assay type: cell-based, mouse; details: 50 µM; control solvent only
Description: The myocyte C2C12 cell line (ATCC CRL-1772), a subclone of myoblasts from mouse muscles, was cultured according to standard protocol in DMEM supplemented with 10% fetal calf serum, 100 IU/ml penicillin, and […] streptomycin at 37 °C in 5% CO2. Cells were pleated on a 96-well microplate and after reach confluence were differentiated in medium with 2% horse serum. Differentiation medium was changed every 72 h.
as §3
After 24 h incubation, the tested complexes were added. After 2 h incubation at 37 °C in 5% CO2, the medium was changed to low-glucose medium (1000 mg/L), and the tested complexes were added again, with further incubation for 4 h being conducted.
as §4

Chain of PP2A (P67775 whole entry): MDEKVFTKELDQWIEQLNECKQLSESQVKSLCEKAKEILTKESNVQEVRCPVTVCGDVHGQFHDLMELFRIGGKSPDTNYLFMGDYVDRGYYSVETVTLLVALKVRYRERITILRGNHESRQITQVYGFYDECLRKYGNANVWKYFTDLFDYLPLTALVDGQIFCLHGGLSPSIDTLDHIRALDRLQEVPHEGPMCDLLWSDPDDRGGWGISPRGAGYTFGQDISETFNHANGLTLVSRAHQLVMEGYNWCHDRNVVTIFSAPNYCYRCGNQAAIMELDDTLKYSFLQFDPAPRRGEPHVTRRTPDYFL

Row | Structure (SMILES) | Inhibition of PP2A, percentage inhibition of control ± SD (PP2A; 1 µM) [%] | Inhibition of PP2A, percentage inhibition of control ± SD (PP2A; 10 µM) [%] | IC50 (SHP1) [nM] | Inhibition of SHP1, percentage of inhibition of the control (SHP1) [%] | Log IC50 ± SD SHP1 (SHP1; logarithm of IC50) | IC50 (LAR) [nM] | Inhibition of LAR, percentage of inhibition of the control (LAR) [%] | Inhibition of CDC25A, percentage inhibition of control ± SD (CDC25A; 1 µM) [%] | Inhibition of CDC25A, percentage inhibition of control ± SD (CDC25A; 10 µM) [%] | Inhibition of PTP1B, percentage of inhibition of the control (PTP1B) [%] | Log IC50 ± SD PTP1B (PTP1B; logarithm of IC50) | IC50 (PTP1B; read-out: IC50 PTP1B) [nM] | IC50 (PTP1B; read-out: IC50 for PTP1B) [nM] | Cell viability of myocytes C2C12, % of the control (myocytes C2C12 [1]) [%] | IC50 (SHP2) [nM] | Inhibition of SHP2, percentage of inhibition of the control (SHP2) [%] | Transport of [14C]-deoxy-D-glucose into 3T3-L1 adipocytes, % of control (adipocytes 3T3-L1) | Transport of [14C]-deoxy-D-glucose into C2C12 myocytes, % of the control (myocytes C2C12 [2])
1 | CC(CC(=S)Nc1ccccc1)=NC(Cc1ccccc1)C(=O)[O][V](=[O])([Cl])[Cl] (stereo not shown) [VC059, [VOCl2(L2)]·0.5Et2O·1.5HCl] | 44 ± 1 | 54 ± 9 | 26 | 82 | −7.59 ± 0.04 | 76 | 71 | 55 ± 3 | 68 ± 3 | 79 | −6.97 ± 0.01 | 107 | 110 | 86 ± 6 | 13 | 87 |  | 
2 | CC(CC(=S)Nc1ccccc1)=NC(CC(C)C)C(=O)[O][V](=[O])([Cl])[Cl] (stereo not shown) [VC070, [VOCl2(L3)]·0.5Et2O·3HCl] |  |  |  | 84 |  |  | 69 |  |  | 79 |  |  |  |  |  | 88 | 159 % of control | 158 ± 10 % of control
